Patent US20240349726A1, “SUBSTITUTED 1,2,4-THIADIAZOLYL NICOTINAMIDES, SALTS OR N-OXIDES THEREOF AND THEIR USE AS HERBICIDALLY ACTIVE SUBSTANCES” (Bayer Aktiengesellschaft, priority 2021, published 2024)

Assays:
Assay type in all cases: in vivo
[1] = tested on: Echinochloa crus-galli; assay: Herbicidal post-emergence action, ECHCG; details: 1280 g/ha, assessed visually after ca. 3 weeks vs untreated controls
Source text: (§1) Seeds of mono- and dicotyledonous weed plants were sown in plastic pots (double sowings with one species of mono- and one species of dicotyledonous weed plants per pot), in sandy loam, covered with soil and grown under controlled growth conditions. 2 to 3 weeks after sowing, the test plants were sprayed in the single-leaf stage. The compounds according to the invention, formulated in the form of wettable powders (WP) or as emulsifiable concentrates (EC), were sprayed onto the green plant parts as an aqueous suspension or as an emulsion, with the addition of 0.5% of an additive, at an application rate of 600 litres of water per hectare (converted). The test plants were placed in the greenhouse for ca. 3 weeks under optimum growth conditions, and then the effect of the preparations is assessed visually in comparison with untreated controls (herbicidal effect in percent (%): 100% effect=plants have died, 0% effect=as control plants).

[2] = tested on: Matricaria inodora; assay: Herbicidal post-emergence action, MATIN; details: 1280 g/ha, assessed visually after ca. 3 weeks vs untreated controls
Source text: as §1, with “plants).[…]” for “plants).”

[3] = tested on: Stellaria media; assay: Herbicidal post-emergence action, STEME; details: assessed visually after ca. 3 weeks vs untreated controls
Source text: as §1, with “plants).[…]” for “plants).”

[4] = tested on: Stellaria media; assay: Herbicidal pre-emergence action, STEME; details: visual grading after ca. 3 weeks vs untreated controls
Source text: (§2) Seeds of mono- and dicotyledonous weed plants were sown in plastic pots (double sowings with one species of mono- and one species of dicotyledonous weed plants per pot), in sandy loam, and covered with soil. The compounds according to the invention, formulated in the form of wettable powders (WP) or as emulsifiable concentrates (EC), were applied to the surface of the covering soil as an aqueous suspension or as an emulsion, with the addition of 0.5% of an additive, at an application rate of 600 litres of water per hectare (converted). Following treatment, the pots were placed in a greenhouse and kept under optimum growth conditions for the test plants. The visual grading of the damage to the test plants is carried out after ca. 3 weeks in comparison to untreated controls (herbicidal effect in percent (%): 100% effect=plants have died, 0% effect=as control plants). Seeds of mono- and dicotyledonous weed plants were sown in plastic pots (double sowings with one species of mono- and one species of dicotyledonous weed plants per pot), in sandy loam, and covered with soil. The compounds according to the invention, formulated in the form of wettable powders (WP) or as emulsifiable concentrates (EC), were applied to the surface of the covering soil as an aqueous suspension or as an emulsion, with the addition of 0.5% of an additive, at an application rate of 600 litres of water per hectare (converted). Following treatment, the pots were placed in a greenhouse and kept under optimum growth conditions for the test plants. The visual grading of the damage to the test plants is carried out after ca. 3 weeks in comparison to untreated controls (herbicidal effect in percent (%): 100% effect=plants have died, 0% effect=as control plants).

[5] = tested on: Abutilon theophrasti; assay: Herbicidal pre-emergence action, ABUTH; details: 1280 g/ha, visual grading after ca. 3 weeks vs untreated controls
Source text: (§3) Seeds of mono- and dicotyledonous weed plants were sown in plastic pots (double sowings with one species of mono- and one species of dicotyledonous weed plants per pot), in sandy loam, and covered with soil. The compounds according to the invention, formulated in the form of wettable powders (WP) or as emulsifiable concentrates (EC), were applied to the surface of the covering soil as an aqueous suspension or as an emulsion, with the addition of 0.5% of an additive, at an application rate of 600 litres of water per hectare (converted). Following treatment, the pots were placed in a greenhouse and kept under optimum growth conditions for the test plants. The visual grading of the damage to the test plants is carried out after ca. 3 weeks in comparison to untreated controls (herbicidal effect in percent (%): 100% effect=plants have died, 0% effect=as control plants).

[6] = tested on: Setaria viridis; assay: Herbicidal pre-emergence action, SETVI; details: 1280 g/ha, visual grading after ca. 3 weeks vs untreated controls
Source text: as §3

[7] = tested on: Amaranthus retroflexus; assay: Herbicidal post-emergence action, AMARE; details: assessed visually after ca. 3 weeks vs untreated controls
Source text: as §1, with “plants).[…]” for “plants).”

[8] = tested on: Matricaria inodora; assay: Herbicidal pre-emergence action, MATIN; details: visual grading after ca. 3 weeks vs untreated controls
Source text: as §2

[9] = tested on: Lolium rigidum; assay: Herbicidal post-emergence action, LOLRI; details: 1280 g/ha, assessed visually after ca. 3 weeks vs untreated controls
Source text: as §1, with “plants).[…]” for “plants).”

[10] = tested on: Lolium rigidum; assay: Herbicidal pre-emergence action, LOLRI; details: visual grading after ca. 3 weeks vs untreated controls
Source text: as §2

[11] = tested on: Kochia scoparia; assay: Herbicidal pre-emergence action, KCHSC; details: 1280 g/ha, visual grading after ca. 3 weeks vs untreated controls
Source text: as §2

[12] = tested on: Veronica persica; assay: Herbicidal post-emergence action, VERPE; details: 1280 g/ha, assessed visually after ca. 3 weeks vs untreated controls
Source text: as §1, with “plants).[…]” for “plants).”

[13] = tested on: Amaranthus retroflexus; assay: Herbicidal pre-emergence action, AMARE; details: visual grading after ca. 3 weeks vs untreated controls
Source text: as §2

CC(C)c1ccnc(F)c1C(=O)Nc1ncns1 [Example I-025]
herbicidal effect ECHCG [1]: 90%
herbicidal effect MATIN [2]: 90%
herbicidal effect STEME ([3]; 320 g/ha): 90%
herbicidal effect STEME ([3]; 1280 g/ha): 90%
herbicidal effect STEME ([4]; 320 g/ha): 90%
herbicidal effect STEME ([4]; 1280 g/ha): 90%
herbicidal effect ABUTH [5]: 100%
herbicidal effect SETVI [6]: 90%
herbicidal effect AMARE ([7]; 320 g/ha): 90%
herbicidal effect AMARE ([7]; 1280 g/ha): 100%
herbicidal effect MATIN ([8]; 320 g/ha): 100%
herbicidal effect MATIN ([8]; 1280 g/ha): 100%
herbicidal effect LOLRI [9]: 90%
herbicidal effect LOLRI ([10]; 320 g/ha): 90%
herbicidal effect LOLRI ([10]; 1280 g/ha): 100%
herbicidal effect KCHSC [11]: 90%
herbicidal effect VERPE [12]: 90%
herbicidal effect AMARE ([13]; 320 g/ha): 90%
herbicidal effect AMARE ([13]; 1280 g/ha): 100%
